Laboratory results reported in patent EP0290583B1, “$g(a) OLIGONUCLEOTIDES” (CENTRE NATIONAL DE LA RECHERCHE SCIENTIFIQUE (CNRS), priority 1986, dated 1988).

Key:
[1] = system: fragment d'ADN simple brin (10 nM) de séquence d(^5'TGAGTGAGTAAAAAAAATGAGTGCCAA^3'); test: Specific cleavage of single-stranded DNA by a phenanthroline-coupled alpha-oligonucleotide; format: biochemical; details: 5µM, sulfate cuivrique (1µM), acide β-mercaptopropionique (1 mM), 0°C, 3 heures
Procedure: (§1) L'α-D-oligonucléotide décrit à l'exemple XIV (5µM) est dissous dans un tampon à pH 7 contenant 10 mM cacodylate de sodium et 0,1 M NaCl. […] Du sulfate cuivrique (1µM) et de l'acide β-mercaptopropionique (1 mM) sont ajoutés à 0°C et le mélange est incubé à 0°C pendant 3 heures. De la bathocuproine est ajoutée pour arrêter la réaction. Le mélange est disposé sur un gel de polyacrylamide à 18 % et soumis à l'électrophorèse.

[2] = system: fragment d'ADN double brin; test: Specific cleavage of double-stranded DNA by a phenanthroline-coupled alpha-oligonucleotide; format: biochemical; details: en présence de 1 mM spermine
Procedure: as §1
La position des sites de coupure sur le double brin indique que l'α-D-oligothymidylate XIV est orienté parallèlement au brin contenant la séquence A₈.

[3] = system: β-d^5' (ApCpGpGpApApTpApTpApGpC]^3'; test: Half-dissociation temperature (T 1/2) of the hybridisation complex with a parallel complementary beta strand; format: binding; details: 10 mM cacodylate de sodium/0,1M NaCl, pH = 7, 10 µM
Description: (§2) Les nouveaux produits de formule générale (I) selon l'invention et les produits de formule générale (I) dans laquelle L représente un atome d'oxygène, R et R' représentent chacun un atome d'hydrogène et B représente un base nucléique naturelle forment des complexes d'hybridation avec les séquences complémentaires d'ARN beaucoup plus stables que ceux qui sont formés avec l'ADN. La stabilité peut être mesurée par la température de demi-transition des complexes (T 1/2) lors d'une élévation de température. Les valeurs de T 1/2 sont déterminées à la concentration de 10⁻⁵M en α -oligonucléotide dans un tampon à pH = 7 contenant du cacodylate de sodium (10⁻²M) et du chlorure de sodium (0,1 M). Les résultats sont rassemblés dans les Tableaux I.
(§3) Dans les hybrides formés par les dérivés des α-oligonucléotides selon l'invention avec les séquences d'acides nucléiques complémentaires les deux brins possèdent généralement la même orientation.

β-d^5' [AGATTTGAG]^3' = test: as above; format: binding; details: 10 mM cacodylate de sodium/0,1M NaCl, pH = 7, 10 µM
Description: as §2, §3

β-d^5'[GAGTTTAGA]^3' = test: Complex formation with the antiparallel beta strand; format: binding; details: antiparallel sequence; 10 mM cacodylate de sodium/0,1M NaCl, pH = 7, 10 µM
Description: as §2, §3

## (Phe-CH₂)α-[(sp)(Tp)₇T] [XIV]
[1]
  coupure de l'ADN simple brin (sites de coupures): sites de coupures sont révélés
[2]
  coupure de l'ADN double brin: induit des coupures sur les deux brins de la double hélice

## [Acr(CH₂)₅]α-d(pCpCpTpTpApTpApTpT) [Acr(CH₂)₅-α-d^5' [pCpCpTpTpApTpApTpT]^3']
[3]
  température de demi-dissociation (T 1/2): 35 °C

## Acr(CH₂)₅ α-d^5'[TCTAAACTC]^3'
β-d^5' [AGATTTGAG]^3'
  température de demi-dissociation (T 1/2): 27 °C
β-d^5'[GAGTTTAGA]^3'
  complexe mis en évidence au-dessus de 0°C: Aucun complexe
